The target of one test is PI3K-δ (p110δ/p85α) (Homo sapiens (Human), UniProt O00329). Description: Transcreener KINASE Assay, fluorescent determination of PI3K enzyme activity. It counts as biochemical. The settings on record: for inhibition at 1 µM: read-out: PI3K-δ IH % (inhibition rate).
In the next test the target is PI3K-γ (p110γ) (Homo sapiens (Human), UniProt P48736). The test is described as above. It counts as biochemical. The settings on record: for inhibition at 1 µM: read-out: PI3K-γ IH % (inhibition rate).
Sequence of PI3K-γ (p110γ) (P48736 whole entry, species assumed): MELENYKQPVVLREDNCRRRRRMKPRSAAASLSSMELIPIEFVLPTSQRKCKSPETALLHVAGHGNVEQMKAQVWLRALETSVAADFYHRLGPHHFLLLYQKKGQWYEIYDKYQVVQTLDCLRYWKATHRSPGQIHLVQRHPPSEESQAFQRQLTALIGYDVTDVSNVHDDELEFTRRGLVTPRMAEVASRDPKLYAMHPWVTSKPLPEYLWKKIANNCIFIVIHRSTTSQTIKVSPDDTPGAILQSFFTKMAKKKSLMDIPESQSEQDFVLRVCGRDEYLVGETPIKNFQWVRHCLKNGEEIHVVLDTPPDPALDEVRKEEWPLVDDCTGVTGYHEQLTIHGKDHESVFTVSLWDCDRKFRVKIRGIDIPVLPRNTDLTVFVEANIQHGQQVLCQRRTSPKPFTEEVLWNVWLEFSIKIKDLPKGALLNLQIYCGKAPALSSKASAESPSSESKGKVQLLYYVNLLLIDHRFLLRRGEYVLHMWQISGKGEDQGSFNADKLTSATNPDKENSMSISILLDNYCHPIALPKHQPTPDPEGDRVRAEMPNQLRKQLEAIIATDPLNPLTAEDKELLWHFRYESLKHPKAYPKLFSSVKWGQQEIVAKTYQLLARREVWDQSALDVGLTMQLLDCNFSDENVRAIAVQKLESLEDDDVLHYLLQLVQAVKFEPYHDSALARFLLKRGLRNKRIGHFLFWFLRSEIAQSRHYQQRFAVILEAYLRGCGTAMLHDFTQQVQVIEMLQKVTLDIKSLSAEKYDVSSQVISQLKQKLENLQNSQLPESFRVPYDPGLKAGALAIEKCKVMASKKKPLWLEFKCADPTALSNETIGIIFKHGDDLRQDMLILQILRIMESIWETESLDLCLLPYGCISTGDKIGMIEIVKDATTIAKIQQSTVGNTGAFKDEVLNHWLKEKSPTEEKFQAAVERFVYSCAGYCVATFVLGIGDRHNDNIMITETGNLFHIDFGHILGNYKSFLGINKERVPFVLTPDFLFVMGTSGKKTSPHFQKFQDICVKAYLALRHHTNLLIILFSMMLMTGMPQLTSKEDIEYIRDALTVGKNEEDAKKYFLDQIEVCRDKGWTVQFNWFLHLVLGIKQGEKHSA
The target in the next test is PI3K-β (Homo sapiens, UniProt P42338). Described as above. In kind it is biochemical. The settings on record: for inhibition at 1 µM: read-out: PI3K-β IH % (inhibition rate).
Sequence of PI3K-β (P42338 whole entry, looked up): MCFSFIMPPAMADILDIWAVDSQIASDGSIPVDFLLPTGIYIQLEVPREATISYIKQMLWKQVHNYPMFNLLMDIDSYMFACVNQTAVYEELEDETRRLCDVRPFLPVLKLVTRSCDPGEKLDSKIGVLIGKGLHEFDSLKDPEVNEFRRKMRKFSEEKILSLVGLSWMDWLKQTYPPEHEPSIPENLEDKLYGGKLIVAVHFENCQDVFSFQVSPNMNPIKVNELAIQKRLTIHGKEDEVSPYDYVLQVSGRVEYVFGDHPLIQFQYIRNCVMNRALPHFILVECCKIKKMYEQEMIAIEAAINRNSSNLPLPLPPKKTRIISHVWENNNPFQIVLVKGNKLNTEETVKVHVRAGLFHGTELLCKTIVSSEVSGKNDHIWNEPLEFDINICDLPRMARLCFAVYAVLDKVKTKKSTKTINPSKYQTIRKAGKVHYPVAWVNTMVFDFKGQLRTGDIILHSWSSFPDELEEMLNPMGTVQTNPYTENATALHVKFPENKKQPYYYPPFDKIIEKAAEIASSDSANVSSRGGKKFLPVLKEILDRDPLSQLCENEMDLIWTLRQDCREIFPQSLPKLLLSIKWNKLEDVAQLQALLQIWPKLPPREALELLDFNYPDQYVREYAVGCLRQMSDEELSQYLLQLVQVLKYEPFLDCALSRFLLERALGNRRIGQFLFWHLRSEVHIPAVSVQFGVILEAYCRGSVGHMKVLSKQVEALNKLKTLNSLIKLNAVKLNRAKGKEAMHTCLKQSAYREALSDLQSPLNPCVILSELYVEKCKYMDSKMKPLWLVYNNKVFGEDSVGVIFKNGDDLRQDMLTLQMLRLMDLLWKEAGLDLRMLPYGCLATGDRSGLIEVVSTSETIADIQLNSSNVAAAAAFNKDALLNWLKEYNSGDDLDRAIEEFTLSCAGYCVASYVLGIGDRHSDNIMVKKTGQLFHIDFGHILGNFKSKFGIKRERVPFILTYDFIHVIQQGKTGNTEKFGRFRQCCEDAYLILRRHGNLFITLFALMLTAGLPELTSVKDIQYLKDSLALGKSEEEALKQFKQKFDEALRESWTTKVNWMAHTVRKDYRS
Test [1] relates to AKT phosphorylation (p-AKT Ser473) in Ramos cells. The test can be described thus: Inhibition of AKT phosphorylation in Ramos cell line (anti-IgM stimulated). In kind it is cell-based. The conditions noted are these: Homo sapiens, read-out: IC50, inhibition of AKT phosphorylation.
Method: 6×10^4/mL Ramos cells (ATCC, CRL-1596; cells were cultured in RPMI1640 media with 10% FBS) were seeded into a 96-well plate (Beckman Dickinson, No. 356692) at 80 uL/well, 4,800 cells/well. After incubation for 3 hr at 37° C. under 5% CO2, Ramos cells were treated with 10 uL/well various concentrations of test compound (final concentrations of the test compound: 1 uM, 0.3 uM, 0.1 uM, 0.037 uM, 0.012 uM, 0.0041 uM, 0.0014 uM and 0.0005 uM) or 0.3% DMSO for 30 min, and then were stimulated with 10 uL/well 1 ug/ml Anti-IgM (Jackson Immunoresearch, 709-006-073) for 15-20 min. • 1) Cells were fixed with 100 μL of 4% pre-warmed Paraformaldehyde (2% final concentration), and incubated for 45 min at room temperature. • 2) The paraformaldehyde solution was removed. 100 μL of ice-cold methanol was added into each well and the plate was left at 4° C. for 30 min. • 3) The cells were washed for three times with 160 μL PBS. • 4) 40 μL 1:350 dilution of Rabbit anti-p-AKT(Ser^473) antibody (Cell Signaling Technology, 4060L) in antibody dilution buffer (1% BSA, in PBS) were added into each well. The plate was inculpated overnight at 4° C. • 5) The cells were washed for 3 times with 160 uL PBS. • 6) 45 μL of Goat anti-rabbit IgG Alexa488 antibody (Invitrogen, A11034) at a 1:1,000 dilution in antibody dilution buffer (1% BSA, in PBS) were added into each well. The plate was covered with foil to keep out of light and was incubated for 90 min at room temperature. • 7) The cells were washed for 3 times with 160 uL PBS. • 8) 50 μL of 1.5 μM Propidium Iodide (Sigma: P4170) solution was added into each well to determine cell number (1.5 mM Propidium iodide stock was diluted with 1:1,000 in PBS, and the final concentration was 1.5 μM). • 9) The plate was incubated at room temperature for 30 min and then was sealed with a cover-seal. • 10) The plate was loaded into the Acumen Explorer and scan with the appropriate instrument settings.
(§1) Data was analyzed and IC50 values were generated using the add-in software for Microsoft Excel, Xlfit™ (version 5.3).
In the next test the target is PI3K-α (p110α/p85α) (Homo sapiens (Human), UniProt P42336). Description: Transcreener KINASE Assay, fluorescent determination of PI3K enzyme activity. It counts as biochemical. As for the experimental part:
Inhibition rates were calculated as follow: IH %=(ADP amount under 2% DMSO well−ADP amount under test compound well)/ADP amount under 2% DMSO well×100%.

Test [2] deals with PI3Kδ signaling in basophils. Description: Inhibition of PI3Kδ signaling in basophils from human whole blood. It counts as cell-based. The settings on record: read-out: IC50, inhibition of PI3Kδ signaling in basophils.
Method: Methods • 1) Heparinized human whole blood was mixed and pipetted into the 96 well v-bottom plate, 100 μL per well. • 2) 10 μL of stimulation buffer (1 mg/mL stock, final concentration of Recombinant human IL-3: 20 ng/mL) was added to the whole blood samples of each well and vortex gently. […] Vortex all the wells once more and incubate for 20 min at 37° C. • 5) Labeling with staining antibody: Degranulation was stopped by incubating the samples on ice for 5 min. 6 μL of staining antibody mixture (anti-CD63-FITC and anti-IgE-PE) was added into each well. Vortex and incubate the wells for 20 min in an ice bath, covered to prevent exposure to light. • 6) The whole blood samples were lysed with 300 uL RBC lysis (pre-warmed to room temperature, 20 to 25° C.). Vortex and incubate the samples for 15 min at room temperature. Spin down cells (5 min, 250×g, 4° C.). The supernatant was aspirated leaving approximately 100 μL in each well. • 7) The blood samples were lysed once more as step 6). • 8) Washing: The samples are washed once with 0.5 mL of washing solution. The plate was centrifuged (5 min, 250×g, 4° C.). The supernatant was aspirated leaving approximately 100 μL in each well. The sample in each well was washed and centrifuged once more as above. • 9) 200 μL of fixing solution (1% papraledehyde in 1% BSA/PBS) was added into each well.
as §1
The mark [3] stands for this setting: Ramos cells, anti-IgM stimulation.
Setting [4] is: human whole blood, anti-human IgE stimulation, CD63.

Experimental findings from patent publication US10208066B2, “Imidazopyridazine compounds and their use” (HUTCHISON MEDIPHARMA LIMITED, priority 2014, dated 2019) are described below.

Read-outs that look alike come from different tables or passages of the source.
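For PI3K-β IH % (inhibition rate) in this document: recombinant PI3K enzyme reaction, 80 min at room temperature, ADP formed detected by far-red competitive fluorescence polarization immunoassay, inhibition relative to ADP in 2% DMSO control wells.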
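For PI3K-γ IH % (inhibition rate) in this document: ADP produced by p110γ kinase reaction, 80 min at room temperature, detected by far-red fluorescence polarization immunoassay, inhibition relative to 2% DMSO control wells.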
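For PI3K-δ IH % (inhibition rate) in this document: ADP formed by the kinase detected via far-red competitive fluorescence polarization immunoassay after 80 min room-temperature reaction, inhibition relative to 2% DMSO wells.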

Sequence of PI3K-δ (p110δ/p85α) (O00329 whole entry, species assumed): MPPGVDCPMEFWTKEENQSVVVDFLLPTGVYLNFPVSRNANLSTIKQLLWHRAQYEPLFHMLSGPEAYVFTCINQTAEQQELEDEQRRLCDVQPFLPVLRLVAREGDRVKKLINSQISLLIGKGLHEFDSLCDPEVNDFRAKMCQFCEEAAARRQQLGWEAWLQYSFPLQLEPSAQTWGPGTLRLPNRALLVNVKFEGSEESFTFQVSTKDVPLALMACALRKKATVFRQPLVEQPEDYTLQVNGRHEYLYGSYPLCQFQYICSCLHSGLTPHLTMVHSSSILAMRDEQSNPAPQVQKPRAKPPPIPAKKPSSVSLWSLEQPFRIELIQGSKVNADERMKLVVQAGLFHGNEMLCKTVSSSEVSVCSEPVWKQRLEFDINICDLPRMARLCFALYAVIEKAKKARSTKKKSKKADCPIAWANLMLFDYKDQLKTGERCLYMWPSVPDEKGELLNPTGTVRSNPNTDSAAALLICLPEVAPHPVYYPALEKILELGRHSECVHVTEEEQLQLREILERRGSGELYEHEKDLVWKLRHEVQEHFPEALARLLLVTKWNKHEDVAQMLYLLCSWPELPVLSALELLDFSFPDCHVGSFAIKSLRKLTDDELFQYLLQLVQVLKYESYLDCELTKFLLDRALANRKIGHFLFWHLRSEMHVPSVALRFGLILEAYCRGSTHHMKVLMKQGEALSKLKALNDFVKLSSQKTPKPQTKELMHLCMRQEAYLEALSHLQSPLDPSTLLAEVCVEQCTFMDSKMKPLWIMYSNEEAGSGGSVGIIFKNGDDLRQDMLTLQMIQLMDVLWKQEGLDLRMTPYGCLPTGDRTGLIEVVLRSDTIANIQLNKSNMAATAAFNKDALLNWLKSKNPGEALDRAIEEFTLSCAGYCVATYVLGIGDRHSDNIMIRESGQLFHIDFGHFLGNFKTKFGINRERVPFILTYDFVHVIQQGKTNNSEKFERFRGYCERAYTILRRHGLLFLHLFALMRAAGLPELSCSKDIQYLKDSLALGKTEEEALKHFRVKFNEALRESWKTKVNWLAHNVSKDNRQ
Sequence of PI3K-δ (p110δ/p85α) (P27986 whole entry partner, species assumed): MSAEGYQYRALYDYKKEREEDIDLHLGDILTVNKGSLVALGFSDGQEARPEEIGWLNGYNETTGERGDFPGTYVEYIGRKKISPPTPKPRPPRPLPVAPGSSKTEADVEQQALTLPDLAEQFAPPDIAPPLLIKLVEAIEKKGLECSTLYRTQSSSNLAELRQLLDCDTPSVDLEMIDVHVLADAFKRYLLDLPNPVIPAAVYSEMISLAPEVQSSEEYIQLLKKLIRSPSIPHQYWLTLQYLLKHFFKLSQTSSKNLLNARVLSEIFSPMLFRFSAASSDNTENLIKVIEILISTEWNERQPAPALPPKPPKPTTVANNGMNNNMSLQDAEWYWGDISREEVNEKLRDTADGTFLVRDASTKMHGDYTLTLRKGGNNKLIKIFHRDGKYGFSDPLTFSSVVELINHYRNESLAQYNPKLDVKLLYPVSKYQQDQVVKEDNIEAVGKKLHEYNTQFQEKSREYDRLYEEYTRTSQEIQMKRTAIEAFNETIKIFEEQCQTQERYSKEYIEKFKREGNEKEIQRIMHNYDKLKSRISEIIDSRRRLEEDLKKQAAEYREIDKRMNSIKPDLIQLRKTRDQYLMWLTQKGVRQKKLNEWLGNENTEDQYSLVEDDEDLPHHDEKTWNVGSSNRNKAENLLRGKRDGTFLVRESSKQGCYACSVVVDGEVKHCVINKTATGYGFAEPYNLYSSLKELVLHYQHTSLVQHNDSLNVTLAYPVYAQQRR
Sequence of PI3K-α (p110α/p85α) (P42336 whole entry, species assumed): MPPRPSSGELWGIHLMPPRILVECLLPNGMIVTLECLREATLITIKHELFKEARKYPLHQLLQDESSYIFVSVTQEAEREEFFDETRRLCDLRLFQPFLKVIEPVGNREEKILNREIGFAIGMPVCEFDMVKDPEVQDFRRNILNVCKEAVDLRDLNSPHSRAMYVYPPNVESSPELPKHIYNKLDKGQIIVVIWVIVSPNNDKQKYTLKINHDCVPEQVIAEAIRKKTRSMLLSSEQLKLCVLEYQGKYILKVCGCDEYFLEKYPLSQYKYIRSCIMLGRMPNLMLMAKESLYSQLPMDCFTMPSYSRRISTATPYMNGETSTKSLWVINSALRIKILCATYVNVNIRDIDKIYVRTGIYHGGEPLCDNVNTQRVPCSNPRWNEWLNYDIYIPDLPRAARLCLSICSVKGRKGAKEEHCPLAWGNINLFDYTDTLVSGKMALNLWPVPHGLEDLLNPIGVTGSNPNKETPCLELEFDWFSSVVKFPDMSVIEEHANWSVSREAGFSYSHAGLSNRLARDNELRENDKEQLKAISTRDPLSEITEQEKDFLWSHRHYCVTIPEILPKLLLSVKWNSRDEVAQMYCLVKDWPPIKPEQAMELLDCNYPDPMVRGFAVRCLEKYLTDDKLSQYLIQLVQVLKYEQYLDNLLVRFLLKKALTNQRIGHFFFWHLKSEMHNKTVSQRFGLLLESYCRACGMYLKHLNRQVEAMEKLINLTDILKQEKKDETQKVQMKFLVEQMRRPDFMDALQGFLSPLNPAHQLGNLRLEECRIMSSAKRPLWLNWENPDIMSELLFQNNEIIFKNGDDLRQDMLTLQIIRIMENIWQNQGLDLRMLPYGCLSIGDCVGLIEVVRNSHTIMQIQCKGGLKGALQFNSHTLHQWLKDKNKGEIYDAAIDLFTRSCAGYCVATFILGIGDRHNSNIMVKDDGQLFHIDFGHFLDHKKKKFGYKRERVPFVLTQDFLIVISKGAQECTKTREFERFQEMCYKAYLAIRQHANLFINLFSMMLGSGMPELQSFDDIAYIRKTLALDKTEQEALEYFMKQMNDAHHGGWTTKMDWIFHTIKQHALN
Sequence of PI3K-α (p110α/p85α) (P27986 whole entry partner, species assumed): as the sequence (P27986 whole entry partner, species assumed) above
Method for PI3K-β: (§2) It is a universal, homogenous, high throughput screening (HTS) technology using a far-red, competitive fluorescence polarization immunoassay based on the detection of ADP to monitor the activity of enzymes that catalyze group transfer reactions. […] The reaction mixture was added into desired wells of a 96-well plate. The plate was sealed and incubated for 80 min at room temperature. • 2) Next, 25 uL ADP detection mix was added into each well. The plate was sealed again and incubated for 60 min at room temperature. Then fluorescence polarization was measured by Tecan Infinite F500 Reader.
as §1
Method for PI3K-γ (p110γ): as §2, §1
Method for PI3K-δ (p110δ/p85α): as §2, §1

Usually IC50 stands for the concentration needed to halve the response being measured. A word on the inhibition: it is the drop in the measured response relative to a control, in per cent. For the compound `Cc1nc(N)c(C#N)c(N[C@@H](C)c2cc3ncc(Cl)n3nc2-c2ccccc2)n1` [Compound 32], the results for the concentration for half-maximal inhibition (IC50) (against PI3K-δ (p110δ/p85α); against PI3K-γ (p110γ); in test [1] (setting [3])) were 15 nM, 243 nM and 20 nM, respectively. In addition, the inhibition at 1 µM at PI3K-β (at 1 μM) was found to be 23.8%.

Take `C[C@H](Nc1ncnc(N)c1-c1nn[nH]n1)c1cc2ncc(Cl)n2nc1-c1ccccc1` [Compound 21, (S)—N^4-(1-(3-chloro-6-phenylimidazo[1,2-b]pyridazin-7-yl)ethyl)-5-(2H-tetrazol-5-yl)pyrimidine-4,6-diamine]: the IC50 against PI3K-δ (p110δ/p85α) amounted to 6 nM; against PI3K-γ (p110γ) it was 424 nM. Besides, at PI3K-α (p110α/p85α) (at 1 μM, read-out: PI3K-α IH % (inhibition rate)), the inhibition at 1 µM was 21.7%.

Turning to `C[C@H](Nc1ncnc(N)c1C#N)c1cc2ncc(Cl)n2nc1-c1ccc2cccnc2c1` [Compound 61], the IC50 on PI3K-δ (p110δ/p85α) came to 7 nM; in test [1] (setting [3]), 41 nM; in test [2] (setting [4]) it was 109 nM. Further, the inhibition at 1 µM on PI3K-γ (p110γ) was found to be 26.5%; on PI3K-β (at 1 μM) it was 24.4%.

Take `C[C@H](Nc1ncnc(N)c1C#N)c1cc2ncc(Cl)n2nc1-c1cccc(C(F)(F)F)c1` [Compound 48]: the IC50 worked out at 9 nM against PI3K-δ (p110δ/p85α); 1330 nM against PI3K-γ (p110γ); 4080 nM against PI3K-β; 8 nM in test [1] (setting [3]); 41 nM in test [2] (setting [4]).

Take `C[C@H](Nc1ncnc(N)c1C#N)c1cc2ncc(Cl)n2nc1-c1cc(F)ccc1F` [Compound 35]: the IC50 turned out to be 4 nM on PI3K-δ (p110δ/p85α) and 13 nM in test [1] (setting [3]). Also, the inhibition at 1 µM at PI3K-γ (p110γ) came out at 64.6%; on PI3K-β (at 1 μM), 67.6%.

As for `C[C@H](Nc1ncnc(N)c1Cl)c1cc2ncc(Cl)n2nc1-c1ccccc1` [Compound 40], the IC50 at PI3K-δ (p110δ/p85α) is 2 nM; at PI3K-γ (p110γ), greater than 333 nM; at PI3K-β it was 277 nM; in test [1] (setting [3]), 3 nM.

In the case of `C[C@H](Nc1ncnc(N)c1C#N)c1cc2ncc(Cl)n2nc1-c1cc(F)cc(Cl)c1` [Compound 66], the IC50 amounted to 9 nM against PI3K-δ (p110δ/p85α); 1120 nM against PI3K-γ (p110γ); 4300 nM against PI3K-β; 2 nM in test [1] (setting [3]); 262 nM in test [2] (setting [4]).

Regarding `C[C@H](Nc1ncnc(N)c1C#N)c1cc2ncc(Cl)n2nc1-c1cc(F)cc(F)c1` [Compound 30, (S)-4-amino-6-((1-(3-chloro-6-(3,5-difluorophenyl)imidazo[1,2-b]pyridazin-7-yl)ethyl)amino)pyrimidine-5-carbonitrile], the IC50 turned out to be 3 nM at PI3K-δ (p110δ/p85α); 410 nM on PI3K-γ (p110γ); 1040 nM on PI3K-β; 1 nM in test [1] (Ramos); 6 nM in test [2] (Homo sapiens).

Turning to `Cc1nc2cc([C@H](C)Nc3ncnc(N)c3C#N)c(-c3ccccc3)nn2c1Cl` [Compound 59], the IC50 amounted to 5 nM at PI3K-δ (p110δ/p85α); 2390 nM on PI3K-γ (p110γ); 1160 nM against PI3K-β; 6 nM in test [1] (setting [3]); 100 nM in test [2] (setting [4]).

Consider `Cc1ccccc1-c1nn2c(Cl)cnc2cc1[C@H](C)Nc1ncnc(N)c1C#N` [Compound 31, (S)-4-amino-6-((1-(3-chloro-6-(o-tolyl)imidazo[1,2-b]pyridazin-7-yl)ethyl)amino)pyrimidine-5-carbonitrile], for which the IC50 against PI3K-δ (p110δ/p85α) turned out to be 4 nM; at PI3K-γ (p110γ), 146 nM; against PI3K-β it was 371 nM; in test [1] (setting [3]) it was 2 nM.

In the case of `C[C@H](Nc1ncnc(N)c1C#N)c1cc2ncc(Cl)n2nc1-c1ccc2scnc2c1` [Compound 74], the 50% inhibitory concentration (IC50) at PI3K-δ (p110δ/p85α) came out at 9 nM; in test [1] (setting [3]), 23 nM. Besides, the inhibition at 1 µM on PI3K-γ (p110γ) is 40.8%; at PI3K-β (at 1 μM), 49.4%.

As for `C[C@H](Nc1ncnc(N)c1C#N)c1cc2ncc(Cl)n2nc1-c1cccc(S(C)(=O)=O)c1` [Compound 46], the IC50 on PI3K-δ (p110δ/p85α) was found to be 4 nM; on PI3K-γ (p110γ), 50 nM; against PI3K-β, 1320 nM; in test [1] (setting [3]), 6 nM.

Consider `Cc1cc(F)cc(-c2nn3c(Cl)cnc3cc2[C@H](C)Nc2ncnc(N)c2C#N)c1` [Compound 67], for which the IC50 turned out to be 5 nM on PI3K-δ (p110δ/p85α); 1140 nM against PI3K-γ (p110γ); 3580 nM against PI3K-β; 3 nM in test [1] (setting [3]); 10 nM in test [2] (setting [4]).

For `C[C@H](Nc1ncnc(N)c1C#N)c1cc2ncc(Cl)n2nc1-c1cccnc1` [Compound 77], the IC50 at PI3K-δ (p110δ/p85α) was found to be 2 nM; against PI3K-γ (p110γ), 436 nM; on PI3K-β, 238 nM; in test [1] (setting [3]), 3 nM.

Turning to `C[C@H](Nc1ncnc(N)c1C#N)c1cc2ncc(Cl)n2nc1-c1ccccc1C(F)(F)F` [Compound 45], the IC50 at PI3K-δ (p110δ/p85α) was found to be 3 nM; on PI3K-γ (p110γ), 195 nM; on PI3K-β, 450 nM; in test [1] (setting [3]), 3 nM.

For `C[C@@H](c1cc2ncc(Cl)n2nc1-c1ccccc1)n1ccc2c(N)ncnc21` [Compound 27, (S)-7-(1-(3-chloro-6-phenylimidazo[1,2-b]pyridazin-7-yl)ethyl)-7H-pyrrolo[2,3-d]pyrimidin-4-amine], the IC50 at PI3K-δ (p110δ/p85α) was 25 nM; in test [2] (setting [4]), 565 nM. The inhibition at 1 µM at PI3K-γ (p110γ) worked out at 24.9%; on PI3K-β (at 1 μM), 9.5%.

As to `C[C@H](Nc1ncnc(N)c1C#N)c1cc2ncc(Cl)n2nc1-c1cccc(Cl)c1` [Compound 41], the IC50 against PI3K-δ (p110δ/p85α) turned out to be 3 nM; on PI3K-γ (p110γ), 499 nM; on PI3K-β it was 1330 nM; in test [1] (setting [3]) it was 12 nM; in test [2] (setting [4]), 18 nM.

In the case of `Cc1cccc(-c2nn3c(Cl)cnc3cc2[C@H](C)Nc2ncnc(N)c2C#N)c1` [Compound 62], the IC50 at PI3K-δ (p110δ/p85α) was 2 nM; against PI3K-γ (p110γ), 247 nM; against PI3K-β, 1230 nM; in test [1] (setting [3]), 1 nM; in test [2] (setting [4]), 15 nM.

`CC(Nc1ncnc(N)c1C#N)c1cc2ncc(Cl)n2nc1-c1ccccc1` (racemic) [Compound 2, 4-amino-6-((1-(3-chloro-6-phenylimidazo[1,2-b]pyridazin-7-yl)ethyl)amino)pyrimidine-5-carbonitrile]: the IC50 on PI3K-α (p110α/p85α) was greater than 1000 nM.

Regarding `C[C@H](Nc1ncnc(N)c1C#N)c1cc2ncc(Cl)n2nc1-c1cccc(F)c1F` [Compound 36], the IC50 at PI3K-δ (p110δ/p85α) is 3 nM; against PI3K-γ (p110γ), 243 nM; against PI3K-β it was 1310 nM; in test [1] (setting [3]), 1 nM.

For `C[C@H](Nc1ncnc(N)c1C#N)c1cc2ncc(Cl)n2nc1-c1cccc(C#N)c1` [Compound 65], the IC50 on PI3K-δ (p110δ/p85α) is 2 nM; on PI3K-γ (p110γ), 611 nM; at PI3K-β, 1260 nM; in test [1] (setting [3]), 2 nM; in test [2] (setting [4]) it was 14 nM.

With `Cc1noc(-c2c(N)ncnc2N[C@@H](C)c2cc3ncc(Cl)n3nc2-c2ccccc2)n1` [Compound 82, (S)—N^4-(1-(3-chloro-6-phenylimidazo[1,2-b]pyridazin-7-yl)ethyl)-5-(3-methyl-1,2,4-oxadiazol-5-yl)pyrimidine-4,6-diamine], the figures for the concentration for half-maximal inhibition (IC50) against PI3K-δ (p110δ/p85α) and on PI3K-γ (p110γ) were 13 nM and 203 nM, respectively. For the same compound, the inhibition at 1 µM on PI3K-β (at 1 μM) turned out to be 55.2%.

`C[C@H](Nc1ncnc(N)c1C#N)c1cc2ncc(Cl)n2nc1-c1cnn(C)c1` [Compound 72]: the IC50 came out at 4 nM against PI3K-δ (p110δ/p85α), 513 nM at PI3K-γ (p110γ) and 89 nM on PI3K-β.

For the compound `C[C@H](Nc1ncnc(N)c1C(N)=O)c1cc2ncc(Cl)n2nc1-c1ccccc1` [Compound 53, (S)-4-amino-6-((1-(3-chloro-6-phenylimidazo[1,2-b]pyridazin-7-yl)ethyl)amino)pyrimidine-5-carboxamide], the figures for the inhibition at 1 µM at PI3K-γ (p110γ) and on PI3K-β (at 1 μM) were 34.3% and 30.5%, respectively. The IC50 in test [1] (setting [3]) turned out to be 16 nM.

The compound `C[C@H](Nc1ncnc(N)c1-c1ccc(O)c(F)c1)c1cc2ncc(Cl)n2nc1-c1ccccc1` [Compound 38] yielded an IC50 against PI3K-δ (p110δ/p85α) of 66 nM. The results for the inhibition at 1 µM on PI3K-γ (p110γ) and at PI3K-β (at 1 μM) were 54.3% and -2.2%, respectively.

Consider `CC[C@@H](Nc1ncnc(N)c1C#N)c1cc2ncc(Cl)n2nc1-c1ccccc1` [Compound 5, (R)-4-amino-6-((1-(3-chloro-6-phenylimidazo[1,2-b]pyridazin-7-yl)propyl)amino)pyrimidine-5-carbonitrile], for which the inhibition at 1 µM on PI3K-δ (p110δ/p85α) was 47.3%; at PI3K-γ (p110γ) it was 4.1%; at PI3K-β (at 1 μM), -10.7%.

Consider `Cc1cn2nc(-c3ccccc3)c([C@H](C)Nc3ncnc(N)c3C#N)cc2n1` [Compound 58], for which, at PI3K-δ (p110δ/p85α), the IC50 was 138 nM. Also, the inhibition at 1 µM came out at 20.2% on PI3K-γ (p110γ) and 20.5% on PI3K-β (at 1 μM).

Take `CCC(Nc1ncnc2[nH]cnc12)c1cc2ncc(Cl)n2nc1-c1ccccc1` (stereo not shown) [Compound 14]: the inhibition at 1 µM turned out to be 51% at PI3K-δ (p110δ/p85α) and 22.5% at PI3K-γ (p110γ). Besides, on PI3K-β (at 1 μM), the “PI3K-β IH % (inhibition rate)” value is recorded as 3.2%.

On PI3K-δ (p110δ/p85α), `CC[C@H](Nc1ncnc2[nH]cnc12)c1cc2ncc(Cl)n2nc1-c1cccc(F)c1` [Compound 47] displayed an IC50 of 18 nM. In addition, the inhibition at 1 µM at PI3K-γ (p110γ) is 55.2%; at PI3K-β (at 1 μM), 32.2%.

`C[C@@H](Nc1ncnc(N)c1C#N)c1cc2ncc(Cl)n2nc1-c1ccc2scnc2c1` [Compound 75]: the inhibition at 1 µM was 1% on PI3K-δ (p110δ/p85α), 31.7% at PI3K-γ (p110γ) and -7.1% on PI3K-β (at 1 μM).

Regarding `C[C@H](Nc1ncnc(N)c1C#N)c1cc2ncc(Cl)n2nc1-c1ccccc1S(C)(=O)=O` [Compound 68], the IC50 on PI3K-δ (p110δ/p85α) worked out at 2 nM; on PI3K-γ (p110γ) it was 345 nM; against PI3K-β, 963 nM; in test [1] (setting [3]) it was 1 nM; in test [2] (setting [4]), 2 nM.
